Assay [1] deals with Akt1 kinase (Homo sapiens (Human), UniProt P31749). In words: Akt kinase assay (HTRF, GSK-derived biotinylated peptide substrate). The assay is classed as biochemical. The protocol: (§1) Activated Akt isoforms and pleckstrin homology domain deletion constructs were assayed utilizing a GSK-derived biotinylated peptide substrate. The extent of peptide phosphorylation was determined by Homogeneous Time Resolved Fluorescence (HTRF) using a lanthanide chelate (Lance)-coupled monoclonal antibody specific for the phosphopeptide in combination with a streptavidin-linked allophycocyanin (SA-APC) fluorophore which will bind to the biotin moiety on the peptide. When the Lance and APC are in proximity (i.e. bound to the same phosphopeptide molecule), a non-radiative energy transfer takes place from the Lance to the APC, followed by emission of light from APC at 665 nm.
(§2) Materials Required for the Assay:
(§3) A. Activated Akt isozyme or pleckstrin homology domain deleted construct
(§4) B. Akt peptide substrate: GSK3α (S21) Peptide #3928 biotin-[…] (SEQ.ID.NO.:15), Macromolecular Resources.
(§5) C. Lance labeled anti-phospho GSK3α monoclonal antibody (Cell Signaling Technology, clone #27).
(§6) D. SA-APC (Prozyme catalog no. PJ25S lot #896067).
(§7) E. Microfluor®B U Bottom Microtiter Plates (Dynex Technologies, Catalog no. 7205).
(§8) F. Discovery® HTRF Microplate Analyzer, Packard Instrument Company.
(§9) G. 100× Protease Inhibitor Cocktail (PIC): 1 mg/mL benzamidine, 0.5 mg/mL pepstatin, 0.5 mg/mL leupeptin, 0.5 mg/mL aprotinin.
(§10) H. 10× Assay Buffer: 500 mM HEPES, pH 7.5, 1% PEG, […], 1 mM EGTA, 1% BSA, 20 mM θ-Glycerol phosphate.
(§11) I. Quench Buffer: 50 mM HEPES pH 7.3, 16.6 mM EDTA, 0.1% BSA, 0.1% Triton X-100, 0.17 nM Lance labeled monoclonal antibody clone #27, 0.0067 mg/mL SA-APC
(§12) J. ATP/MgCl2 working solution: 1× Assay buffer, 1 mM DTT, 1×PIC, 125 mM KCl, 5% Glycerol, 25 mM MgCl2, 375 μM ATP
(§13) K. Enzyme working solution: 1× Assay buffer, 1 mM DTT, 1× PIC, 5% Glycerol, active Akt. The final enzyme concentrations were selected so that the assay was in a linear response range.
(§14) L. Peptide working solution: 1× Assay buffer, 1 mM DTT, 1× PIC, 5% Glycerol, 2 μM GSK3 biotinylated peptide #3928
(§15) The reaction is assembled by adding 16 μl, of the ATP/MgCl2 working solution to the appropriate wells of a 96-well microtiter plate. Inhibitor or vehicle (1.0 μL) is added followed by 10 μL of peptide working solution. The reaction is started by adding 13 μL of the enzyme working solution and mixing. The reaction is allowed to proceed for 50 min and then stopped by the addition of 60 μl, HTRF quench buffer. The stopped reactions were incubated at room temperature for at least 30 min and then read on the Discovery instrument.
On the technique in general: In TR-FRET formats the signal depends on donor and acceptor labels being close together.

Assay [2] deals with Akt2 kinase (Homo sapiens (Human), UniProt P31751). The assay is described as above. The assay is classed as biochemical. The protocol: as §1, §2, §3, §4, §5, §6, §7, §8, §9, §10, §11, §12, §13, §14, §15

For eight compounds, IC50 results are on record in patent publication US8536193B2, “Inhibitors of AKT activity” (Merck Sharp & Dohme Corp., priority 2008, dated 2013).

Chain of Akt1 kinase (P31749 whole entry, the tested form may be a part, canonical isoform): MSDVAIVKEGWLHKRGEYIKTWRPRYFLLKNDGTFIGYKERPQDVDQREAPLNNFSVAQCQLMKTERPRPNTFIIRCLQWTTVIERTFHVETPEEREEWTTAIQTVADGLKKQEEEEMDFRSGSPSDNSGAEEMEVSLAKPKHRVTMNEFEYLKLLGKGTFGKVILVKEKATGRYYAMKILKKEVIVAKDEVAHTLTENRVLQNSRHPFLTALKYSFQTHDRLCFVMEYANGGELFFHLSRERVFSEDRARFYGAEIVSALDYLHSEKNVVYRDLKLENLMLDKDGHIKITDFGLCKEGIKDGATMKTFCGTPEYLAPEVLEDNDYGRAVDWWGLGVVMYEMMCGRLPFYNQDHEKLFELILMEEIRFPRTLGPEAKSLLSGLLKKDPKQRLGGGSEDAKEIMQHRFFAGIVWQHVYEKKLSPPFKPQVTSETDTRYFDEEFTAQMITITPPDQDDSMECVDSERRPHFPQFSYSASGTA
Chain of Akt2 kinase (P31751 whole entry): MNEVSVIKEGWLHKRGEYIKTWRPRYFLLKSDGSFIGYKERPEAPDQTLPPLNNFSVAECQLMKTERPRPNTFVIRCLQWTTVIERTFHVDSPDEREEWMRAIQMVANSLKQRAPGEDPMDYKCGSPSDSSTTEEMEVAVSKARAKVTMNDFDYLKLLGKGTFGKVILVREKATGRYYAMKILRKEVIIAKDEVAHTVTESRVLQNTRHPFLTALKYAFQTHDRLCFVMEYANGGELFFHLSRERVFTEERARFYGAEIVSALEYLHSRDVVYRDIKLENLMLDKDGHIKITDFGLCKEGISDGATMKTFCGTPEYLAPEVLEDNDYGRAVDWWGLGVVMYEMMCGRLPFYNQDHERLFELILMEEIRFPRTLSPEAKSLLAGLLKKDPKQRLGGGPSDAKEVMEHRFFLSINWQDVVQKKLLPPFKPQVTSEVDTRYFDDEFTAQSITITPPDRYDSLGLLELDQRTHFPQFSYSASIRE

The term IC50 denotes the midpoint of a concentration-inhibition curve. Consider `C[C@]1(O)C[C@@](N)(c2ccc(-c3nc4ccc5nnc(C(F)F)n5c4cc3-c3ccccc3)cc2)C1` [EXAMPLE 10-4, trans-3-amino-3-{4-[1-(difluoromethyl)-8-phenyl[1,2,4]triazolo[4,3-a]-1,5-naphthyridin-7-yl]phenyl}-1-methylcyclobutanol], for which the IC50 worked out at 0.38 nM in assay [1] and 1.7 nM in assay [2].
In the same order, the values of `O=C(Cc1cccnc1)NC1(c2ccc(-c3nc4ccc5nnc(O)n5c4cc3-c3ccccc3)cc2)CCC1` [EXAMPLE 1-9, N-{1-[4-(1-hydroxy-8-phenyl[1,2,4]triazolo[4,3-a]-1,5-naphthylidin-7-yl)phenyl]cyclobutyl}-2-(3-pyridinyl)acetamide] are 39 nM and 200 nM.
The matching figures for `Nc1nnc2ccc3nc(-c4ccc(C5(N)CCC5)cc4)c(-c4ccccc4)cc3n12` [EXAMPLE 3-1, 7-[4-(1-aminocyclobutyl)phenyl]-8-phenyl[1,2,4]triazolo[4,3-a]-1,5-naphthylidin-1-amine]: 6.1 nM and 24 nM.
Take `CC1(O)CC(N)(c2ccc(-c3nc4ccc5nnc(-c6nnc[nH]6)n5c4cc3-c3ccccc3)cc2)C1` (stereo not drawn) [EXAMPLE 7-26, cis-3-amino-1-methyl-3-{4-[8-phenyl-1-(4H-1,2,4-triazol-3-yl)[1,2,4]triazolo[4,3-a][1,5]naphthyridin-7-yl]phenyl}cyclobutanol]: the figures for the half-maximal inhibitory concentration (IC50) in assay [1] and in assay [2] were 0.7 nM and 12.6 nM, respectively.
In the same order, the values of `NC1(c2ccc(-c3nc4ccc5nnc(C(F)F)n5c4cc3-c3ccccc3)cc2)CC(O)(C2CC2)C1` (stereo not drawn) [EXAMPLE 10-5, trans-3-amino-1-cyclopropyl-3-{4-[1-(difluoromethyl)-8-phenyl-[1,2,4]triazolo[4,3-a]-1,5-naphthyridin-7-yl]phenyl}cyclobutanol] are 0.34 nM and 2.2 nM.
The matching figures for `Cc1nnc2ccc3nc(-c4ccc(C5(N)CCC5)cc4)c(-c4ccccc4)cc3n12` [EXAMPLE 4-1, 1-[4-(1-methyl-8-phenyl[1,2,4]triazolo[4,3-a]-1,5-naphthylidin-7-yl)phenyl]cyclobutanamine]: 8.2 nM and 50 nM.
The matching figures for `NC1(c2ccc(-c3nc4ccc5nnc(-c6ccccc6)n5c4cc3-c3ccccc3)cc2)CC(F)(F)C1` [EXAMPLE 5-12, 1-[4-(1,8-diphenyl[1,2,4]triazolo[4,3-a]-1,5-naphthyridin-7-yl)phenyl]-3,3-difluorocyclobutanamine]: 10 nM and 140 nM.
`NC1(c2ccc(-c3nc4ccc5nnc(-c6ccccc6)n5c4cc3-c3ccccc3)cc2)CCC1` [EXAMPLE 2-1, 1-[4-(1,8-diphenyl[1,2,4]triazolo[4,3-a]-1,5-naphthylidin-7-yl)phenyl]cyclobutanamine]: the IC50 in assay [1] was 2.3 nM; in assay [2] it was 32 nM.
